Test results: the supplement of paper PMC11451515

Tested on: P12-Ichikawa
Experiment: cell viability relative to DMSO control; higher = less cytotoxic
Conditions: 48 h
Outline: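 NOMO1 or SEM cells were plated at 500 cells/well and P12-Ichikawa cells at 1000 cells/well in 1536-well plates (5 μl), after each leukemia line had been adapted for at least four passages in each medium. Pin dosing delivered library compounds in DMSO at 11 threefold concentrations, 47 μM to 0.79 nM. CellTiter-Glo One luminescence was read after 48 h at 37°C. Viability is reported as a per-plate percentage of DMSO wells, with cell-free wells as background.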

[1] = HPLM + 10% dialyzed FBS, 0.000781 µM
[2] = HPLM + 10% dialyzed FBS, 0.00234 µM
[3] = HPLM + 10% dialyzed FBS, 0.00702 µM
[4] = HPLM + 10% dialyzed FBS, 0.0211 µM
[5] = HPLM + 10% dialyzed FBS, 0.0632 µM
[6] = HPLM + 10% dialyzed FBS, 0.19 µM
[7] = HPLM + 10% dialyzed FBS, 0.569 µM
[8] = HPLM + 10% dialyzed FBS, 1.71 µM
[9] = HPLM + 10% dialyzed FBS, 5.12 µM
[10] = HPLM + 10% dialyzed FBS, 15.4 µM
[11] = HPLM + 10% dialyzed FBS, 46.1 µM
[12] = RPMI 5 mM glucose + 10% FBS, 0.000781 µM
[13] = RPMI 5 mM glucose + 10% FBS, 0.00234 µM
[14] = RPMI 5 mM glucose + 10% FBS, 0.00702 µM
[15] = RPMI 5 mM glucose + 10% FBS, 0.0211 µM
[16] = RPMI 5 mM glucose + 10% FBS, 0.0632 µM
[17] = RPMI 5 mM glucose + 10% FBS, 0.19 µM
[18] = RPMI 5 mM glucose + 10% FBS, 0.569 µM
[19] = RPMI 5 mM glucose + 10% FBS, 1.71 µM
[20] = RPMI 5 mM glucose + 10% FBS, 5.12 µM
[21] = RPMI 5 mM glucose + 10% FBS, 15.4 µM
[22] = RPMI 5 mM glucose + 10% FBS, 46.1 µM
[23] = RPMI 5 mM glucose + 10% dialyzed FBS, 0.000781 µM
[24] = RPMI 5 mM glucose + 10% dialyzed FBS, 0.00234 µM
[25] = RPMI 5 mM glucose + 10% dialyzed FBS, 0.00702 µM
[26] = RPMI 5 mM glucose + 10% dialyzed FBS, 0.0211 µM
[27] = RPMI 5 mM glucose + 10% dialyzed FBS, 0.0632 µM
[28] = RPMI 5 mM glucose + 10% dialyzed FBS, 0.19 µM
[29] = RPMI 5 mM glucose + 10% dialyzed FBS, 0.569 µM
[30] = RPMI 5 mM glucose + 10% dialyzed FBS, 1.71 µM
[31] = RPMI 5 mM glucose + 10% dialyzed FBS, 5.12 µM
[32] = RPMI 5 mM glucose + 10% dialyzed FBS, 15.4 µM
[33] = RPMI 5 mM glucose + 10% dialyzed FBS, 46.1 µM

| Structure (SMILES) | cell viability [1] | cell viability [2] | cell viability [3] | cell viability [4] | cell viability [5] | cell viability [6] | cell viability [7] | cell viability [8] | cell viability [9] | cell viability [10] | cell viability [11] | cell viability [12] | cell viability [13] | cell viability [14] | cell viability [15] | cell viability [16] | cell viability [17] | cell viability [18] | cell viability [19] | cell viability [20] | cell viability [21] | cell viability [22] | cell viability [23] | cell viability [24] | cell viability [25] | cell viability [26] | cell viability [27] | cell viability [28] | cell viability [29] | cell viability [30] | cell viability [31] | cell viability [32] | cell viability [33] |
| --- | --- | --- | --- | --- | --- | --- | --- | --- | --- | --- | --- | --- | --- | --- | --- | --- | --- | --- | --- | --- | --- | --- | --- | --- | --- | --- | --- | --- | --- | --- | --- | --- | --- |
| C[C@@H]1O[C@@H](O[C@H]2C[C@@H](O)[C@]3(CO)[C@H]4[C@H](O)C[C@]5(C)[C@@H](C6=CC(=O)OC6)CC[C@]5(O)[C@@H]4CC[C@]3(O)C2)[C@H](O)[C@H](O)[C@H]1O | 98.5% | 96.7% | 97.5% | 85.2% | 32.9% | 11.5% | 10.7% | 12.3% | 12.7% | 12.9% | 9.88% | 92.2% | 105% | 102% | 94.7% | 80% | 33.6% | 9.32% | 8.91% | 6.97% | 6.93% | 5.78% | 98.8% | 101% | 98.7% | 88.7% | 56.4% | 17.6% | 9.86% | 8.22% | 6.53% | 5.46% | 4.89% |
| O=C(CC12CC3CC(CC(C3)C1)C2)Nc1cccc2nc(NCCNCCO)ccc12 | 87.7% | 88.7% | 84.5% | 90.8% | 88.1% | 91.2% | 98.2% | 88.1% | 95.7% | 92% | 56.7% | 84.7% | 87.2% | 85.6% | 89.4% | 88.8% | 86.3% | 87.4% | 81.9% | 89.2% | 94.1% | 57.6% | 82% | 86.6% | 85.7% | 99.4% | 91.4% | 94.8% | 90.3% | 85.8% | 77.6% | 93.8% | 42.4% |
| COc1cc([C@@H]2c3cc4c(cc3[C@H](O)[C@H]3COC(=O)[C@@H]23)OCO4)cc(OC)c1OC | 84.1% | 93.9% | 95.1% | 104% | 100% | 77.6% | 30.8% | 14.3% | 8.67% | 5.39% | 4.89% | 94.5% | 95.3% | 96.5% | 95.7% | 98.7% | 83.2% | 34.1% | 20.9% | 8.85% | 5.8% | 4.88% | 86.9% | 95.1% | 101% | 94.3% | 97.6% | 91.2% | 43.9% | 22.7% | 15% | 10.4% | 5.7% |
| C[C@@H]1CN(Cc2ccc(F)cc2)[C@@H](C)CN1C(=O)c1cc2c(C(=O)C(=O)N(C)C)cn(C)c2cc1Cl | 111% | 118% | 118% | 128% | 115% | 123% | 125% | 125% | 125% | 125% | 108% | 110% | 114% | 111% | 126% | 122% | 124% | 132% | 113% | 124% | 117% | 107% | 119% | 132% | 117% | 124% | 122% | 130% | 124% | 127% | 123% | 118% | 117% |
| CC(C)=CCC/C(C)=C/CC/C(C)=C/CSc1ccccc1C(=O)O | 103% | 121% | 117% | 113% | 119% | 105% | 91.2% | 83.7% | 90.6% | 61% | 36.4% | 106% | 106% | 111% | 95.7% | 101% | 90% | 82.1% | 67.3% | 60% | 47.9% | 34.4% | 104% | 112% | 120% | 116% | 98.1% | 97.2% | 99.5% | 76.4% | 75.2% | 60% | 39.8% |
| C/C(=N\NC(=S)N1CCC1)c1ccccn1 | 105% | 92.4% | 47.6% | 29.3% | 12% | 8.28% | 5.61% | 10.9% | 8.16% | 1.94% | 20.3% | 110% | 96.3% | 57.6% | 22.7% | 10.4% | 8.95% | 8.33% | 6.64% | 5.66% | -0.453% | 9.21% | 117% | 107% | 64.9% | 29.8% | 12.9% | 9.03% | 6.61% | 6.04% | 3.26% | -0.0472% | 8.99% |
| C[C@]12Cc3cn[nH]c3C[C@@H]1CC[C@@H]1[C@@H]2CC[C@@]2(C)[C@H]1CC[C@]2(C)O | 105% | 116% | 113% | 113% | 125% | 110% | 98.1% | 107% | 101% | 120% | 103% | 108% | 64.2% | 123% | 112% | 120% | 109% | 102% | 106% | 113% | 110% | 93.7% | 97.4% | 112% | 111% | 97.2% | 106% | 111% | 105% | 99.6% | 96.9% | 97.5% | 93.1% |
| O=C(CCCCCCC(=O)Nc1ccc([C@H]2O[C@@H](CSc3nc(-c4ccccc4)c(-c4ccccc4)o3)C[C@@H](c3ccc(CO)cc3)O2)cc1)NO | – | – | – | – | – | – | – | – | – | – | – | 118% | 122% | 134% | 123% | 136% | 116% | 115% | 114% | 49.9% | 4.95% | 3.26% | – | – | – | – | – | – | – | – | – | – | – |
